In PMC10945555, “Improving Activity of New Arylurea Agents against Multidrug-Resistant and Biofilm-Producing Staphylococcus epidermidis” (ACS Medicinal Chemistry Letters, 2024):

How the values were obtained:
[1] = test system: biofilm-producing Staphylococcus epidermidis strains; assay: Biofilm eradication (MBEC Assay Kit); format: cell-based
[2] = test system: biofilm-producing Staphylococcus epidermidis strains; assay: Inhibition of biofilm formation (MBIC, resazurin); format: cell-based
Experimental: After 24 hours incubation each well of
concentration of 4 mg/mL was added. […]

[3] = S. epidermidis ATCC 35984 (Table S4)

CC(=O)NC[C@H]1CN(c2ccc(N3CCOCC3)c(F)c2)C(=O)O1 [linezolid, reference compound]
25 µg/mL: MBEC ([1]; clinical strain 44 (Table S4)) | MBEC ([1]; clinical strain 47 (Table S4)) | MBEC ([1]; clinical strain 49 (Table S4)) | MBEC ([1]; clinical strain 66 (Table S4)) | MBEC ([1]; clinical strain 74 (Table S4)) | MBIC50 ([2]; Table S4 strains) | MBIC ([2]; clinical strain 17 (Table S4)) | MBIC ([2]; clinical strain 19 (Table S4)) | MBIC ([2]; clinical strain 28 (Table S4)) | MBIC ([2]; clinical strain 29 (Table S4)) | MBIC ([2]; clinical strain 36 (Table S4)) | MBIC ([2]; clinical strain 40 (Table S4)) | MBIC ([2]; clinical strain 43 (Table S4)) | MBIC ([2]; clinical strain 44 (Table S4)) | MBIC ([2]; clinical strain 47 (Table S4)) | MBIC ([2]; clinical strain 49 (Table S4)) | MBIC ([2]; clinical strain 66 (Table S4)) | MBIC ([2]; clinical strain 74 (Table S4)) | MBIC ([2]; clinical strain 75 (Table S4))
6.25 µg/mL: MBIC ([2]; clinical strain 13 (Table S4)) | MBIC ([2]; clinical strain 30 (Table S4)) | MBIC ([2]; clinical strain 39 (Table S4))
31.25 µg/mL: MBEC ([1]; clinical strain 1 (Table S4)) | MBEC ([1]; clinical strain 6 (Table S4)) | MBEC ([1]; clinical strain 17 (Table S4)) | MBEC ([1]; clinical strain 19 (Table S4))
12.5 µg/mL: MBIC ([2]; clinical strain 8 (Table S4)) | MBIC ([2]; clinical strain 23 (Table S4)) | MBIC ([2]; clinical strain 25 (Table S4, Figure 2))
50 µg/mL: MBEC50 ([1]; Table S4 strains) | MBEC90 ([1]; Table S4 strains) | MBEC ([1]; clinical strain 2 (Table S4)) | MBEC ([1]; clinical strain 3 (Table S4)) | MBEC ([1]; clinical strain 4 (Table S4)) | MBEC ([1]; clinical strain 5 (Table S4)) | MBEC ([1]; clinical strain 7 (Table S4)) | MBEC ([1]; clinical strain 9 (Table S4)) | MBEC ([1]; clinical strain 11 (Table S4)) | MBEC ([1]; clinical strain 12 (Table S4)) | MBEC ([1]; clinical strain 15 (Table S4)) | MBEC ([1]; clinical strain 16 (Table S4)) | MBEC ([1]; clinical strain 21 (Table S4)) | MBEC ([1]; clinical strain 22 (Table S4)) | MBEC ([1]; clinical strain 26 (Table S4)) | MBEC ([1]; clinical strain 27 (Table S4)) | MBEC ([1]; clinical strain 28 (Table S4)) | MBEC ([1]; clinical strain 29 (Table S4)) | MBEC ([1]; clinical strain 33 (Table S4)) | MBEC ([1]; clinical strain 35 (Table S4)) | MBEC ([1]; clinical strain 36 (Table S4)) | MBEC ([1]; clinical strain 37 (Table S4)) | MBEC ([1]; clinical strain 40 (Table S4)) | MBEC ([1]; clinical strain 41 (Table S4)) | MBEC ([1]; clinical strain 42 (Table S4)) | MBEC ([1]; clinical strain 43 (Table S4)) | MBEC ([1]; clinical strain 45 (Table S4)) | MBEC ([1]; clinical strain 46 (Table S4)) | MBEC ([1]; clinical strain 51 (Table S4)) | MBEC ([1]; clinical strain 55 (Table S4)) | MBEC ([1]; clinical strain 58 (Table S4)) | MBEC ([1]; clinical strain 59 (Table S4)) | MBEC ([1]; clinical strain 65 (Table S4)) | MBEC ([1]; clinical strain 67 (Table S4)) | MBEC ([1]; clinical strain 70 (Table S4)) | MBEC ([1]; clinical strain 75 (Table S4)) | MBIC90 ([2]; Table S4 strains) | MBIC ([2]; clinical strain 2 (Table S4)) | MBIC ([2]; clinical strain 3 (Table S4)) | MBIC ([2]; clinical strain 4 (Table S4)) | MBIC ([2]; clinical strain 7 (Table S4)) | MBIC ([2]; clinical strain 9 (Table S4)) | MBIC ([2]; clinical strain 11 (Table S4)) | MBIC ([2]; clinical strain 12 (Table S4)) | MBIC ([2]; clinical strain 15 (Table S4)) | MBIC ([2]; clinical strain 21 (Table S4)) | MBIC ([2]; clinical strain 22 (Table S4)) | MBIC ([2]; clinical strain 26 (Table S4)) | MBIC ([2]; clinical strain 27 (Table S4)) | MBIC ([2]; clinical strain 33 (Table S4)) | MBIC ([2]; clinical strain 35 (Table S4)) | MBIC ([2]; clinical strain 37 (Table S4)) | MBIC ([2]; clinical strain 41 (Table S4)) | MBIC ([2]; clinical strain 42 (Table S4)) | MBIC ([2]; clinical strain 45 (Table S4)) | MBIC ([2]; clinical strain 46 (Table S4)) | MBIC ([2]; clinical strain 51 (Table S4)) | MBIC ([2]; clinical strain 55 (Table S4)) | MBIC ([2]; clinical strain 58 (Table S4)) | MBIC ([2]; clinical strain 59 (Table S4)) | MBIC ([2]; clinical strain 65 (Table S4)) | MBIC ([2]; clinical strain 67 (Table S4)) | MBIC ([2]; clinical strain 70 (Table S4))
7.8 µg/mL: MBEC ([1]; clinical strain 13 (Table S4)) | MBEC ([1]; clinical strain 30 (Table S4)) | MBEC ([1]; clinical strain 39 (Table S4))
15.6 µg/mL: MBEC [1, 3] | MBEC ([1]; clinical strain 8 (Table S4)) | MBEC ([1]; clinical strain 23 (Table S4)) | MBEC ([1]; clinical strain 25 (Table S4)) | MBEC ([1]; clinical strain 73 (Table S4)) | MBEC ([1]; clinical strain 78 (Table S4)) | MBEC ([1]; clinical strain 79 (Table S4)) | MBIC [2, 3] | MBIC ([2]; clinical strain 1 (Table S4)) | MBIC ([2]; clinical strain 5 (Table S4)) | MBIC ([2]; clinical strain 6 (Table S4)) | MBIC ([2]; clinical strain 16 (Table S4)) | MBIC ([2]; clinical strain 73 (Table S4)) | MBIC ([2]; clinical strain 78 (Table S4)) | MBIC ([2]; clinical strain 79 (Table S4))
